In patent US20250280826A1, “PLANT GROWTH PROMOTER” (KAO CORPORATION, priority 2022, published 2025):

Tests used:
Assay type in all cases: in vivo
[1] = system: chickpea; experiment: Example 7: initial growth index in chickpea (above-ground part dry weight); conditions: ascorbic acid 1 500 mass ppm, tap water vs deionized water
Method: Medium-term fertilizer effect type culture soil (Takii hydrous cell medium-term fertilizer effect type, Takii & Co., Ltd.) and vermiculite grains (Akagi-Engei Co., Ltd.) were mixed at a volume ratio of 1:1, and the soil was placed in a polypot (diameter: 10.5 cm, height: 9 cm). The chickpea used was seeds of Kabuli species (purchased from Nikko Seed Co. Ltd.). After tap water was supplied in an amount of 250 mL per pot, 2 seeds per pot were each sown at a depth of from about 1 to 2 cm from the soil surface. The number of repeats in each test plot was 6 (n=6). […]
The cultivation conditions and the foliar spray treatment method were the same as those in Example 6 (example of azuki bean). The evaluated test plots 1 to 4 are as follows.
On day 28 after sowing, the plant body was dried at 90° C. for 24 hours, and the above-ground part dry weight of the plant body was then measured. • 1 plot: control (no application) • 2 plot: foliar spray of 1 500 mass ppm ascorbic acid (dissolved in tap water) • 3 plot: foliar spray of 1 500 mass ppm ascorbic acid (dissolved in deionized water) • 4 plot: foliar spray of 1 500 mass ppm ascorbic acid+1 mass ppm BHT+50 mass ppm isobutyl alcohol+350 mass ppm sorbitan monolaurate (dissolved in tap water) […]

[2] = system: soybean; experiment: Example 4: soybean yield-enhancing effect in field (dry grain mass); conditions: ascorbic acid 1,500 ppm, one foliar spray, 6.7 mL per plant, day 75 after sowing
Method: The influence of foliar spray of a composition containing 1 500 ppm ascorbic acid on soybean yield was evaluated. Foliar spray was carried out only once, and types of test plots were examined (Table 5). The cultivation of soybean was carried out in a field in Tochigi Prefecture, and the soybean cultivar used was “Sato no Hohoemi.” Of the field, a ridge with a width of 2 m excluding the perimeter was used as one plot, and foliar spray treatment was carried out. 3 plot tests were carried out per test plot. An average of 10 plants were cultivated in the range of 2 m, which was set as one plot. In addition to the reagents mentioned in Example 2, polyoxyethylene lauryl ether was used as a nonionic surfactant. Further, the urea, potassium dihydrogen phosphate, sodium sulfite, glutathione, and EDTA used were those manufactured by FUJIFILM Wako Pure Chemical Corporation. The reagents were dissolved in tap water or deionized water to prepare spraying solutions. By using a battery-driven atomizer (GT-5HS, Koshin Ltd.), 6.7 mL of the ascorbic acid aqueous solution per plant was sprayed over the entire soybean plant body. […] The dry grain mass was measured as yield data. After calculating the average grain weight of each plant in one plot, the mean and the standard deviation for the eight plots were calculated (FIG. 9).

[3] = system: Lotus japonicus; experiment: Example 8: number of pods and seed weight in Lotus japonicus; conditions: ascorbic acid 1,500 ppm, tap water vs deionized water
Method: Medium-term fertilizer effect type culture soil (Takii hydrous cell medium-term fertilizer effect type, Takii & Co., Ltd.) and vermiculite grains (Akagi-Engei Co., Ltd.) were mixed at a volume ratio of 1:1, and the soil was placed in a polypot (diameter: 6 cm, height: 5.5 cm).
The Lotus japonicus seeds used were Miyakojima MG-20 lineage. To a 2 mL microtube (Eppendorf) filled approximately ⅓ with the seeds, 1 mL of concentrated sulfuric acid (FUJIFILM Wako Pure Chemical Corporation) was added and allowed to stand for 10 minutes. After rinsing five times with tap water, the seeds were soaked for two hours. After tap water was supplied in an amount of 100 mL per pot, 3 seeds, which had undergone germination treatment, per pot were each sown at a depth of from about 1 to 2 cm from the soil surface. The number of repeats in each test plot was 8 (n=8). […]
For the preparation of the spraying solutions, BHT of the component (B) was previously dissolved in the component (C), and the components (C) and (D) were then mixed to prepare a second agent. […] The number of pods and seed weight of each plant were measured.

O=C1O[C@H]([C@@H](O)CO)C(O)=C1O [ascorbic acid, (R)-3,4-dihydroxy-5-((S)-1,2-dihydroxyethyl)furan-2(5H)-one]
effects on the initial growth index [1]: varied in accordance with the water quality | effects of tap water and deionized water on seed weight [2]: different from each other | effects on the seed weight [3]: varied in accordance with the water quality
